How the values were obtained:
[1] = system: strips of cavernous body isolated from mice; experiment: Relaxation of cavernous-body strips pre-contracted with phenylephrine; conditions: acetylcholine 10^-4 M (control); pre-contracted by phenylephrine 10^-5 M
Text: FIG. 5—Effects of the toxin PnTx2-6 and of the peptide PnTx(19) (1×10^-6M) on the relaxation of strips of cavernous goodies of mice. The strips were pre-contracted with phenylefrine (10^-5 M) and relaxed with acetylcholine (10^-4M)-control, PnTx2-6 (5×10^-8M) and PnTx(19) (x10-6 M) (n=3).
Mice were sacrificed by decapitation, their penis were removed surgically and placed on a Petri dish containing Krebs Ringer bicarbonate—(NaCl, 118.1; KCl, 4.7; KH2PO4, 1.0; MgSo4, 1.0: NaHCO3, 25.0; CaCl2, 2.55; and Glucose, 11.1 mM), bubbled with a mixture of 95% O2 and 5% CO2. The gland, the spongy body and the urethra were removed and the cavernous bodies were desiccated with removal of the tunica albuginea and separated by cutting the fibrous septum between them. The strips of cavernous bodies measuring about 1×1×7 mm were mounted separately in a chamber, one end thereof being secured to an electrode and the other linked to a transducer. […]
The tissue was stretched by a passive force of 2.0 mN and stabilized for 60 minutes, the solution being replaced every 15 minutes. The changes in isometric force were recorded by using an isometric force transducer (World Precision Instruments, Inc., Sarasota, Fla., USA), connected to an amplifier (TBM-4 model; World Precision Instruments, Inc., USA), using software WinDaq Data Acquisition (Dada® Instruments, USA). […]

[2] = system: cerebrocortical synaptosomes; experiment: Synaptosomal viability (lactate dehydrogenase activity, % lysis vs Triton X-100); assay type: cell-based, rat; conditions: for lysis (LDH activity relative to Triton X-100 = 100% of lysis): 60 min incubation
Procedure: FIG. 3—Synaptosomal viability—verified by the activity of the enzyme lactate dehydrogenase, which oxidizes the NADH to NAD+. The latter determines a reduction in the reading (339 nm), which enables one to qualify the enzymatic activity. The reaction mixture was incubated for 60 min with PnTx(19) (10^-5 M; 3×10^-5 M; 10^-6 M; 3×10^-6 M) and the activity percentage evaluated with respect to the lysis triggered by the Triton X-100, considered=100% of lysis. The activity of this enzyme is proportional to the breakage of the synaptosomes, considering that this is an enzyme of the intracellular compartment.
Adult rats (240-300 g) were decapitated the brains were rapidly removed, immersed into homogenization solution (sucrose 0.32 M, EDTA 1 Mm and Dithiotreitol (DTT) 0.25 mM, pH=7.4) and kept in ice, then they were used in preparing the synaptosomes, as previously described by Dunkley et al 1988 (DUNKLEY, P. R.; Brain Research, 441, 59-71, 1988).
As control of the viability of the synaptosomes and also for verifying a possible lytic activity of the peptide, one carried out tests for activity of the enzyme lactate dehydrogenase, according to Kubowistz, Ott, 1943 (KUBOWISTZ, F., OTT, C. Biochem Z. 319, 94-117, 1943).

[3] = system: cerebrocortical synaptosomes of rats; experiment: Release of L-glutamate from cerebrocortical synaptosomes; assay type: cell-based, rat; conditions: 3×10^-5 M, compared with control (untreated synaptosomes), only active concentration of 10-6 to 3×10^-5 M
Procedure: FIG. 4—Effect of different concentrations of the PnTx(19) in releasing L-glutamate—ELISA Plate containing 300 μl/well of the synaptosome mixture (10% final volume) and NADP+(final concentration of 1 mM) in KRH with calcium (2 mM), kept at 37° C. under constant stirring was monitored. One carried out the reading of the fluorescence on the spectrofluorimeter for 2460 seconds. The enzyme GDH (35 units for the final volume of 300 μl) was added to the wells at 60 seconds; at 660 seconds, in different wells, one added different concentrations of PnTx(19) (“10^-5M, 3×10^-5 M, 10^-6 M and 3×10^-6 M”) and the KCI (33 mM). As negative controls, one used wells containing untreated synaptosomes […]. […]
The release of L-glutamate was analyzed according to the proposal of Nicholls et al. 1987 (NICHOLLS, D. et al. J. Neurochem. 49, 5057, 1987). In order to evaluate whether the peptide was capable of inducing release of L-glutamate in cerebrocortical synoptosomes of rats, just as the native toxin, one analyzed the effect thereof at the following concentrations: 10^-5M, 3×10^-5M, 10^-6M, and 2×10^-6 M, […].

[4] = system: channels for sodium Nav1.5, present in cardiomyocytes; experiment: Patch-clamp of cardiac sodium current; assay type: cell-based; conditions: PnTx-19 1 μM
Text: FIG. 6—Effects of the peptide PnTx-19 and of the toxin PnTx2-6 in the cardiac sodium current. A—Effect of the toxin PnTx2-6 on the peak of sodium current (black arrow) and in the inactivation current (gray arrow). C—Effect of the peptide PnTx-19 on the peak of the sodium current and in the inactivation current. D—Course of time of peak in the sodium current, during the perfusion of PnTx-19 and PnTx-26. Each black circle indicates the amplitude of the Ina, measured every 1 second in a membrane potential of −20 mV. The gray bars indicate the moment when the cell was exposed to PnTx2-6 or PnTX-19 (peptide). The bar graphs summarize the effects of PnTx2-6 500 nM (n=7) and of the peptide PnTx-19 (peptide) 1 μM (n=12) in the decay constant (E) and reduction of the sodium current (F). Bars indicate average±SEM, *p<0.05 with respect to the controls.
Patch-clamp experiments were carried out with a view to analyze the effects of the toxin PnTx2-6 and of the peptide PnTx-19 on channels for sodium Nav1.5, present in cardiomyocytes.

isolated perfused heart = experiment: Isolated perfused heart: ventricular pressure, heart rate and ±dP/dt; set-up: species or system rats; conditions: peptide 37.8 nmol/L-37.8 μmol/L
Procedure: FIG. 7—Response dose curve of the peptide PnTx-19 and of the Toxin PnTx2-6 in the right (A) and (B) ventricular pressure, derived±dP/dt (C and D) and cardiac rate (E) of rats.
The rats were kept under a controlled cycle of 12 h light/darkness at a stable temperature with free access to water and food. They were decapitated 10 to 15 minutes after intraperitoneal injection of Heparin (200 IU). The thorax was opened, the heart was carefully desiccated and perfused through an aortic tip with Krebs-Ringer solution (KRS) containing (by mmol/L) NaCl (118.4), KCl (4.7), KH2PO4 (1.2), MgSO4.7H2O (1.2), CaCl2.2H2O (1.25), glucose (11.7) and NaHCO3 (26.5). The perfusion flow was kept constant (10 mL/min) at 37° C. and under constant oxygenation (5% CO2 and 95% O2). A balloon connected to a pressure transducer was inserted into the right ventricle, and one monitored the ventricular pressure, heart rate and derivative±dP/dt (FIG. 7). The balloon volume was adjusted to a final diastolic pressure of about 10 mm Hg. After a period for reaching the balance (30 to 40 minutes), 100 μmol/L carrier were injected (control), toxin at concentrations of 37.8 nmol/L-3.78 μmol/L or a peptide at concentrations of 37.8 nmol/L-37.8 μmol/L in perfusion buffer.
The results are the average±SEM. […]

Swiss mice = experiment: Immunogenicity after subcutaneous immunization (indirect ELISA antibody titer); assay type: in vivo; conditions: 10 μg subcutaneous, during the assays
Procedure: FIG. 8—Analysis of the antibody titer. A) Control: adjuvant (aluminum hydroxide). B) antibody titer after administration of the peptide PnTx-19 (10 μG) in different days.
Swiss, male, 20-23 gram mice were divided into 2 groups (Control—Adjuvant: aluminum hydroxide—FIG. 8 A and PnTx-19-10 μG—FIG. 8B), each group containing 4 animals. The mice were immunized by subcutaneous route. 21, 35 and 49 days from the first inoculation, the mice received a reinforcement of the above-mentioned preparations. To verify the presence of antibodies against the PnTx-19, the serum collected from the mouse tails was evaluated 15, 30, 40 and 60 days after the first inoculation through the indirect immunoenzymatic assay (ELISA), as described for other preparations (DEL PINO, F. A. B., BRANDELLI, A., GONZALES, J. C., HENRIQUES, J. A. P., DEWES, H., Effect of antibodies against β-N-acetylglucosaminidase on reproductive efficiency of the bovine tick Boophilus microplus. Vet. Parasitol. 79, 247-255, 1998).

[5] = Water solubility of the peptide; assay type: physicochemical; conditions: acetylated and amidated peptide
Text: With a view to increasing the solubility of the peptide, in the present technology one has synthetized the PnTx(19) with modifications in the N-terminal portion (acetylation) and C-terminal portion (amidation).

| Compound | relaxation of cavernous-body strips [1] [%] | lysis (LDH activity relative to Triton X-100 = 100% of lysis) ([2]; 3×10^-5 M) [%] | lysis (LDH activity relative to Triton X-100 = 100% of lysis) ([2]; 3×10^-6 M) [%] | lysis (LDH activity relative to Triton X-100 = 100% of lysis) ([2]; 10^-5 M) [%] | effect on synaptosomal viability and/or exocytotic machinery ([2]; 10^-6 M to 3×10^-5 M, compared with control (absence of the peptide)) | lysis (LDH activity relative to Triton X-100 = 100% of lysis) ([2]; 10^-6 M) [%] | release of L-glutamate [3] | release of L-glutamate ([3]; listed as PnTx19) | effect on density of the sodium current [4] | effect on peak of sodium current and inactivation current [4] | effect on ventricular pressure, ±dP/dt and heart rate (isolated perfused heart) | hypersensitivity or death reactions of the animals (Swiss mice) | solubility in water [5] |
| --- | --- | --- | --- | --- | --- | --- | --- | --- | --- | --- | --- | --- | --- |
| CC(=O)OCC[N+](C)(C)C [acetylcholine] | 81.6 |  |  |  |  |  |  |  |  |  |  |  |  |
| Ac-GERRQYFWIAWYKLANSKK-NH2 [PnTx(19)] |  | 2 | 9 | 3.4 | does not affect the synaptosomal viability and/or exocytotic machinery | 6 | induced an increase in the release of glutamate | capable of inducing significant release of L-glutamate | this phenomenon was not observed | These effects were not observed | did not alter any of these parameters | No hypersensitivity or death reactions | water-soluble |

— patent publication US9279004B2, “Synthetic PnTx(19) peptide, pharmaceutical compositions and use” (priority 2012, dated 2016)
